The text below walks through data of article PMC6785188 (ACS chemical neuroscience, 2019).

Molecules are shown by their SMILES. A value given as a limit tells only on which side of the number the result lay.

The target of test [1] is MOR (Homo sapiens, UniProt P35372). Description: Radioligand binding affinity assay, MOR.
Test [2] concerns the target Beta1 (Homo sapiens, UniProt P08588). Description: Radioligand binding affinity assay, Beta1.
The target in test [3] is H2 (Homo sapiens, UniProt P25021). Kind of test: Radioligand binding affinity assay, H2.
The target of test [4] is D5 (Homo sapiens, UniProt P21918). Description: Radioligand binding affinity assay, D5.
Test [5] addresses 5-HT6 (Homo sapiens, UniProt P50406). Description: Radioligand binding affinity assay, 5-HT6.
Test [6] concerns the target T1, 5-HT3 (Homo sapiens, UniProt P46098).
T1 sequence (P46098 24-478): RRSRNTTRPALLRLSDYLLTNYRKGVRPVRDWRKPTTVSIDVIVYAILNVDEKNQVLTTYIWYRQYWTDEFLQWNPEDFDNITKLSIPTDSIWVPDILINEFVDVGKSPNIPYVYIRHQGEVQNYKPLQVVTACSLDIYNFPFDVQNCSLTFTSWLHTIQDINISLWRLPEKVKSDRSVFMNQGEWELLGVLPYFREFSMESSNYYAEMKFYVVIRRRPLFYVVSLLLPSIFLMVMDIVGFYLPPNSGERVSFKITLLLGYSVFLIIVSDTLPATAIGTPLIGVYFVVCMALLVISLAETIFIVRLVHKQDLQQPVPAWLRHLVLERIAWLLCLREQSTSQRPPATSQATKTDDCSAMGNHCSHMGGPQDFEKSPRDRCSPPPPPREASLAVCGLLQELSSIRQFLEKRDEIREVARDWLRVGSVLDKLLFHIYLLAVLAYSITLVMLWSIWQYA
Description: Radioligand binding affinity assay, 5-HT3.

Test [7] deals with 5-HT2A (Homo sapiens, UniProt P28223). Description: Radioligand binding affinity assay, 5-HT2A.
The target of test [8] is T2, M1 (Homo sapiens, UniProt P11229).
T2 sequence (P11229 1-460): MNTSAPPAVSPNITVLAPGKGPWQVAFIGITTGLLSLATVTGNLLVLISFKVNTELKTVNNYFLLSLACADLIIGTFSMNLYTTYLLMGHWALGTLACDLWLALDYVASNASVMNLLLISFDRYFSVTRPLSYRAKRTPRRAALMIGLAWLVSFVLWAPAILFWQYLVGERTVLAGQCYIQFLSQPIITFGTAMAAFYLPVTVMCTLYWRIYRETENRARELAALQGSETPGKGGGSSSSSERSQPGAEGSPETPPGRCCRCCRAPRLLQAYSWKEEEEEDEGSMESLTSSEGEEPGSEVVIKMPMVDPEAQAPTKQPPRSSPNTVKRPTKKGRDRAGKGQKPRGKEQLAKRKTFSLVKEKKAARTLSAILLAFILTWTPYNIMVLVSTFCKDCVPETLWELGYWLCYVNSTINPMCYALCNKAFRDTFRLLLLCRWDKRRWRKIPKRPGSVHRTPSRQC
Kind of test: Radioligand binding affinity assay, M1.

Test [9] deals with SERT (Homo sapiens, UniProt P31645). Kind of test: Radioligand binding affinity assay, SERT.
In test [10] the target is T3, Alpha1B (Homo sapiens, UniProt P35368).
T3 sequence (P35368 1-520): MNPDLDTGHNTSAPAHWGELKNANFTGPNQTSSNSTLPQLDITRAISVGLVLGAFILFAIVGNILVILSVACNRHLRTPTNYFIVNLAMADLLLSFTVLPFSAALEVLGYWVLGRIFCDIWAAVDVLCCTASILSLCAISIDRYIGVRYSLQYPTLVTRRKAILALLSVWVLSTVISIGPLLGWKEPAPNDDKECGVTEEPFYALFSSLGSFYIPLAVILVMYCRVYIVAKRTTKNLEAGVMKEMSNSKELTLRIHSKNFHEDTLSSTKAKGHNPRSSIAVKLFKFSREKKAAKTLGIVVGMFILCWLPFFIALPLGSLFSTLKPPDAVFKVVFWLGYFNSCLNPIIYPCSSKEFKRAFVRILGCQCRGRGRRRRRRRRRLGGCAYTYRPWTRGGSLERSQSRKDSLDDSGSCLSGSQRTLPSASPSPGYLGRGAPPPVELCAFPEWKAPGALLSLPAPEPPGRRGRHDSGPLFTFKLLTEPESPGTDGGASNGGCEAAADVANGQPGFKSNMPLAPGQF
Description: Radioligand binding affinity assay, Alpha1B.

For test [11], the target named is T4, D4 (Homo sapiens, UniProt P21917).
T4 sequence (P21917 1-419): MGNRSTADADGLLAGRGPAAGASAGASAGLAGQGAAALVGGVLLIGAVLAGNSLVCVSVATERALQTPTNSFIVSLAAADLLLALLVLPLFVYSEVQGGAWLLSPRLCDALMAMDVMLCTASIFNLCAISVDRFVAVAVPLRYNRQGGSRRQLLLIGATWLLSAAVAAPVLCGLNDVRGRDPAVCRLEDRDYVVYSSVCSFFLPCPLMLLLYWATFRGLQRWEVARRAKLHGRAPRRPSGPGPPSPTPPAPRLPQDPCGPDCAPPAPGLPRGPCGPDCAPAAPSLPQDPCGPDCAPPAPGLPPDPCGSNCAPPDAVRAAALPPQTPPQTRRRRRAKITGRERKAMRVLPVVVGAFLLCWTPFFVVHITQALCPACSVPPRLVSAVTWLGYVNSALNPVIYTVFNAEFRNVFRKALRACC
Description: Radioligand binding affinity assay, D4.

Test [12] has as its target T5, D1 (Homo sapiens, UniProt P21728). Description: Radioligand binding affinity assay, D1.
The target in test [13] is 5-HT1B (Homo sapiens, UniProt P28222). Kind of test: Radioligand binding affinity assay, 5-HT1B.
In test [14] the target is 5-HT1D (Homo sapiens, UniProt P28221). Kind of test: Radioligand binding affinity assay, 5-HT1D.
For test [15], the target named is Beta2 (Homo sapiens, UniProt P07550). Description: Radioligand binding affinity assay, Beta2.
The target in test [16] is T5, D1. Kind of test: D1R GS-mediated cAMP accumulation GloSensor assay. It counts as cell-based. A general note: Changes in cAMP serve as a functional read-out for many G protein-coupled receptors.
For test [17], the target named is 5-HT5A (Homo sapiens, UniProt P47898). Description: Radioligand binding affinity assay, 5-HT5A.
Test [18] deals with DAT (Homo sapiens, UniProt Q01959). Kind of test: Radioligand binding affinity assay, DAT.
The target in test [19] is 5-HT1E (Homo sapiens, UniProt P28566). Description: Radioligand binding affinity assay, 5-HT1E.
Test [20] deals with T5, D1. Description: BRET β-arrestin2 recruitment assay. It counts as cell-based. A general note: BRET reads energy transfer from a luciferase to a nearby fluorophore.
Test [21] deals with 5-HT4 (Homo sapiens, UniProt Q13639). Kind of test: Radioligand binding affinity assay, 5-HT4.

A word on the Ki: it is the dissociation constant of the complex between target and ligand, obtained from inhibition or displacement. The EC50 is the concentration at which the effect is half-maximal. A high value points to lower potency in that assay. As a reminder, the Emax is the size of the effect at its maximum, as opposed to the concentration needed.

T5 sequence (P21728 whole entry): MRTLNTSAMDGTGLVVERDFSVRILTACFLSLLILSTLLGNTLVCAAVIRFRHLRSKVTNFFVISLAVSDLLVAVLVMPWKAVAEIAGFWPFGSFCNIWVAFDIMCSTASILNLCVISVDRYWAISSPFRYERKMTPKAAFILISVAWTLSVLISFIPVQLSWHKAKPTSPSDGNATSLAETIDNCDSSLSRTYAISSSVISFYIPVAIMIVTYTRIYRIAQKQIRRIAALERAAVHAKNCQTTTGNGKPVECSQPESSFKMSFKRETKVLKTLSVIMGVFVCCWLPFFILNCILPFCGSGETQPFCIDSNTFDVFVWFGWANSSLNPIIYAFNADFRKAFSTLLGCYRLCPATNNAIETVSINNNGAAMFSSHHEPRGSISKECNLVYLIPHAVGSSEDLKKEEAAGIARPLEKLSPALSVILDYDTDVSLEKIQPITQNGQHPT
D5, sequence (P21918 whole entry): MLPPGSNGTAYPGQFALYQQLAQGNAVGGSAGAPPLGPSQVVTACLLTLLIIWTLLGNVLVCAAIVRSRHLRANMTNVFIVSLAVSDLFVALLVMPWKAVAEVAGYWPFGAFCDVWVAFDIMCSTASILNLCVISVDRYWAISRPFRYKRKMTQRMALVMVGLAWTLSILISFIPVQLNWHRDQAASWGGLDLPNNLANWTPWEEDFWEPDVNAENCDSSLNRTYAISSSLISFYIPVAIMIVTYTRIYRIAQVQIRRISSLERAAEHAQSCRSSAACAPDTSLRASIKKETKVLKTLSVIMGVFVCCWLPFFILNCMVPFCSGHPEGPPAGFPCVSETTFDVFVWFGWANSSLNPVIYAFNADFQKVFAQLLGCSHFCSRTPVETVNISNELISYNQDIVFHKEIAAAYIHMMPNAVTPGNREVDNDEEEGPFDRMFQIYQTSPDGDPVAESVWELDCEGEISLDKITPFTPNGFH
H2, sequence (P25021 whole entry): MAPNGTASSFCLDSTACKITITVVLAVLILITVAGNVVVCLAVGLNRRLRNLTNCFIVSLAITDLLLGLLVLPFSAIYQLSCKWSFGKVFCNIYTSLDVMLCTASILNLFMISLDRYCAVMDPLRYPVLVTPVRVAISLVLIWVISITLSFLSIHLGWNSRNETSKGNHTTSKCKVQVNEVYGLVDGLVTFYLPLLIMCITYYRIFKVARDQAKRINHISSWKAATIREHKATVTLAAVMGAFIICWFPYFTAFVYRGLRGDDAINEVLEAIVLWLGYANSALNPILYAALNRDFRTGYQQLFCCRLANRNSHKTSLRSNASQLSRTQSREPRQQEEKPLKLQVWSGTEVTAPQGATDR
5-HT5A, sequence (P47898 whole entry, species assumed): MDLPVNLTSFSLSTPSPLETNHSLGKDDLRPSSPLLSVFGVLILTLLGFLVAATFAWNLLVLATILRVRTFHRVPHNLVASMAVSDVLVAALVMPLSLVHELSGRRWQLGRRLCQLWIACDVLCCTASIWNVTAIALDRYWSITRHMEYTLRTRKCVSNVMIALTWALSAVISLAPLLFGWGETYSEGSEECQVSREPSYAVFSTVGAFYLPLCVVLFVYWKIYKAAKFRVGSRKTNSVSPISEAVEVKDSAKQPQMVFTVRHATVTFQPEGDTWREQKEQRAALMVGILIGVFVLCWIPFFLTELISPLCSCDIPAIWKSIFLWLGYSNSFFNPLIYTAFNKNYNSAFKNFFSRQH
5-HT2A, sequence (P28223 whole entry, species assumed): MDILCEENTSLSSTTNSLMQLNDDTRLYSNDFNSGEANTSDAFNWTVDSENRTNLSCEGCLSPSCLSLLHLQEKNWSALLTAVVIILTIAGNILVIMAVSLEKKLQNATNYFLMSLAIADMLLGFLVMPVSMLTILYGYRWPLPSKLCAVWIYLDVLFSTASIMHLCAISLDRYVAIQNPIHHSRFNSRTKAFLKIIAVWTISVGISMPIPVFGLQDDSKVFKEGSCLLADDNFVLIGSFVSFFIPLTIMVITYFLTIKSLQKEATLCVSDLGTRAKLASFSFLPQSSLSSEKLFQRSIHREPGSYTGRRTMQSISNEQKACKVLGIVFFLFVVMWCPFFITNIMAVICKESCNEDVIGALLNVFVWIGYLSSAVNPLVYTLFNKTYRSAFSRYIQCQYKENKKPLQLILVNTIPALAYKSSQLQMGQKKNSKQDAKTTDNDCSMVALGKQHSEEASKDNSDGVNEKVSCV
5-HT6, sequence (P50406 whole entry, species assumed): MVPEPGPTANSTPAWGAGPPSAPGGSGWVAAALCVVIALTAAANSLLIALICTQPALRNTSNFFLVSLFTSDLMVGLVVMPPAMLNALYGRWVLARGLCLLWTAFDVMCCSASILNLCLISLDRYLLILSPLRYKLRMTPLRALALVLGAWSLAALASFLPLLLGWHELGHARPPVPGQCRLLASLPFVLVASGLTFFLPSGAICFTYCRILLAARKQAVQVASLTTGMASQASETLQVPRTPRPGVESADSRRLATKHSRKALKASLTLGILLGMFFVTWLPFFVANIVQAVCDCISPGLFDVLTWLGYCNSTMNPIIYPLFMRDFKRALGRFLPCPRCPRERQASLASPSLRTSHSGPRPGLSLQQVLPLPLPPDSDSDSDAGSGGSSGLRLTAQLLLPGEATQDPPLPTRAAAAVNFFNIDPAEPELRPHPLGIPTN
5-HT1B, sequence (P28222 whole entry, species assumed): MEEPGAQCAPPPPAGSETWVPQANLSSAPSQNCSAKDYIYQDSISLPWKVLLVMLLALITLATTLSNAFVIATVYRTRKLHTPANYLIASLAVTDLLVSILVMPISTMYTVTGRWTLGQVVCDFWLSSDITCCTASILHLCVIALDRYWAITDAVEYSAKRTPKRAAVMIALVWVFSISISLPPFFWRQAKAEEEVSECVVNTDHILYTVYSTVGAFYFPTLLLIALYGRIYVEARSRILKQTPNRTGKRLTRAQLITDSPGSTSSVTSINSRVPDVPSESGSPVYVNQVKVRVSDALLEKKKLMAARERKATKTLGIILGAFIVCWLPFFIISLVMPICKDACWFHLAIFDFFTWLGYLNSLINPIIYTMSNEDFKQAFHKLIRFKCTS
5-HT4, sequence (Q13639 whole entry, species assumed): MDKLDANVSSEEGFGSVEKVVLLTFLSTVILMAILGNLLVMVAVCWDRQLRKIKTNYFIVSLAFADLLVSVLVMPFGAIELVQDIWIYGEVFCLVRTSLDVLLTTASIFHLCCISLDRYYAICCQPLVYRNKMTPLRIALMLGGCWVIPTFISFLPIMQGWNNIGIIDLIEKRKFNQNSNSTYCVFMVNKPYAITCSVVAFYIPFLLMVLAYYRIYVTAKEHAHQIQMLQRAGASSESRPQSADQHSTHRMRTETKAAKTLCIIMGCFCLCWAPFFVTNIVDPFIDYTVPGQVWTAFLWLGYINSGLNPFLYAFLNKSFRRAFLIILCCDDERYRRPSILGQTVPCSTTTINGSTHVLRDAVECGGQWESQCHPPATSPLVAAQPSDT
MOR, sequence (P35372 whole entry): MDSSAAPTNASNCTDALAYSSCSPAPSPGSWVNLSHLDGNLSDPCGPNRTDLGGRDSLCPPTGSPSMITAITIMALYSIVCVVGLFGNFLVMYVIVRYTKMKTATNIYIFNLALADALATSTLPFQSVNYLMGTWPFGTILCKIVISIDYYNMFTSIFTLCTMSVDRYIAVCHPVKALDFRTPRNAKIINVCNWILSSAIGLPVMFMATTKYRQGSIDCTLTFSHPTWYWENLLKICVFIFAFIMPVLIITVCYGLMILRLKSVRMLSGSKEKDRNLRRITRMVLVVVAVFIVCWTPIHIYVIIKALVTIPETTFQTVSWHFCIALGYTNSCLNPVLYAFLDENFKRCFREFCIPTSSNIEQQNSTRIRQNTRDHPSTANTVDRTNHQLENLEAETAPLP
Beta1, sequence (P08588 whole entry): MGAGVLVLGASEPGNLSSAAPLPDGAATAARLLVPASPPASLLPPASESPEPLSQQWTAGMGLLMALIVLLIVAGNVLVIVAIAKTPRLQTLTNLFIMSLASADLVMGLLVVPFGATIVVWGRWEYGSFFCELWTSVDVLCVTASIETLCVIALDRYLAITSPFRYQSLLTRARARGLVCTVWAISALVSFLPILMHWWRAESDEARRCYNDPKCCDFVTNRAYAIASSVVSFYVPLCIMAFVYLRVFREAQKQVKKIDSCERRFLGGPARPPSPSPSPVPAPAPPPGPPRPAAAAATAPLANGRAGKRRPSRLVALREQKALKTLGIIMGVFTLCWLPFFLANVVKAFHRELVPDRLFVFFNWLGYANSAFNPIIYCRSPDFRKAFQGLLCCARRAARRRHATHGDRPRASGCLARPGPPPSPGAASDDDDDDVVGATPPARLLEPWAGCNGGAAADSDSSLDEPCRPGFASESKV
5-HT1D, sequence (P28221 whole entry, species assumed): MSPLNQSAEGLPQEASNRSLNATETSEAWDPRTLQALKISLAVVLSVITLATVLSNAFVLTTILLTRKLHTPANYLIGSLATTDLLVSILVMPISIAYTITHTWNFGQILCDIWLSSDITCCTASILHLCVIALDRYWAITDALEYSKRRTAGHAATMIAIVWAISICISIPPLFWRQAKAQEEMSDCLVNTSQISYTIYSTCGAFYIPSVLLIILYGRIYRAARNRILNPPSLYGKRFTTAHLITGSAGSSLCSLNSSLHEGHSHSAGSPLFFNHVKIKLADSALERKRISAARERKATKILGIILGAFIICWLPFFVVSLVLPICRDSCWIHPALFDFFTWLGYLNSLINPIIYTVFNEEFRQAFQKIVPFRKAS
5-HT1E, sequence (P28566 whole entry, species assumed): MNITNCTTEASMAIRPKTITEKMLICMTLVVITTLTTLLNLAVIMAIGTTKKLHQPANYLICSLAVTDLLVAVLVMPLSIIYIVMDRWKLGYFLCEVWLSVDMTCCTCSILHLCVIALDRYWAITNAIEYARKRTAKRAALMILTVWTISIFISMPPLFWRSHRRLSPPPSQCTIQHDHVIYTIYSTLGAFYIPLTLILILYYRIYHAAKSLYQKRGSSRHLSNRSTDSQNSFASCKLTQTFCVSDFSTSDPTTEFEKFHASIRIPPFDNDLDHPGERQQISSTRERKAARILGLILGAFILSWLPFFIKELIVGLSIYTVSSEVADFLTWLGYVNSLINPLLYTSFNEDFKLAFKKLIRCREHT

Take `Cc1cc(Oc2nccc3ccsc23)ccc1-c1c(C)c(=O)[nH]c(=O)n1C` [Compound 40, 1,5-Dimethyl-6-(2-methyl-4-(thieno[2,3-c]pyridin-7-yloxy)-phenyl)pyrimidine-2,4(1H,3H)-dione]: the Ki in [1] was more than 10 µM; in [2], more than 10 µM; in test [3], more than 10 µM; in test [4], 0.053 µM; in test [5], more than 10 µM; in [6], more than 10 µM. Moreover, the Ki is more than 10 µM in test [7]; more than 10 µM in test [8]; more than 10 µM in [9]; more than 10 µM in test [10]; more than 10 µM in test [11]; 0.0051 µM in test [12]. Moreover, the Ki in test [13], in [14], in [15], in test [17], in test [18] and in test [19] was more than 10 µM throughout. The molecule also gave a Ki in test [21] of more than 10 µM. The EC50 in test [16] was found to be 0.02 nM; in test [20], 0.0035 µM. In addition, the Emax in test [16] (read-out: GS-cAMP EMAX) was 107%; in [20] (read-out: β-arrestin2 EMAX) it was 65%.
